Laboratory results as given in patent US20090068290A1, “BIFEPRUNOX DOSES FOR TREATING SCHIZOPHRENIA” (priority 2006, published 2009).

Assays:
Format in all cases: in vivo, human
[1] = tested on: adult subjects with schizophrenia; assay: PANSS negative subscale score, Clinical Study One; settings: Bifeprunox 20 mg, LOCF, ITT
Procedure: (§1) There were five treatment groups in this study. […] Study medication was administered once daily. After Baseline measurements were performed, the titration phase was begun. Bifeprunox treated subjects were titrated up to 5 mg, 10 mg or 20 mg according to a standardized titration schedule (Day 1: 0.125 mg, Day 2: 0.25 mg, Day 3: 0.5 mg, Day 4: 1.0 mg, Day 5: 2.0 mg, Day 6: 5.0 mg, Day 7: 10.0 mg, Day 8: 20 mg). When the assigned dose was reached, subjects were maintained at that dose for the remainder of the six-week treatment period.
(§2) The change in the Positive and Negative Symptom Scale (PANSS) total score, from baseline to endpoint, was the primary outcome measure. Secondary efficacy measures included: PANSS positive, PANSS negative, PANSS general psychopathology (GPP) score, PANSS-derived Brief Psychiatric Rating Scale (BPRS) score, Clinical Global Impressions-Severity of Illness (CGI-S), CGI-Improvement (CGI-I) scores, and responder rates. Safety and tolerability evaluations included extrapyramidal symptoms (EPS), weight gain, lipid profile, and serum prolactin.

[2] = tested on: adult subjects with schizophrenia; assay: SAS, BAS and AIMS movement scales, Clinical Study Two
Procedure: Pharmacokinetic (PK) data of bifeprunox in schizophrenic subjects were also assessed and are presented in a separate report (combined with data from study S1543003).
The SAS is used to measure Parkinsonian-type symptoms in patients exposed to antipsychotics. The scale consists of 10 items, each rated on a 5-point scale ranging from 0 (complete absence of the condition) to 4 (presence of the condition in extreme form). The SAS total score is defined as the sum of all item scores, and the range is 0 to 40. A SAS total score of up to 3 is considered normal.
The BAS is used to rate observable, restless movements of drug-induced akathisia as well as the subjective awareness of restlessness and any distress associated with the akathisia. The scale consists of 3 items that is rated from 0 (no evidence of akathisia) to 3 (severe akathisia). The BAS total score is defined as the sum of the these three BAS item scores and ranges from is 0 to 9. In addition, a global clinical assessment of akathisia is rated from 0 (no evidence of akathisia) to 5 (severe akathisia).
The AIMS, designed to record the occurrence of dyskinetic movements, consists of 12 items. Items 1 to 7 measure specific involuntary movements on a scale from 0 (none) to 4 (severe). Items 8 to 10 measure global assessment of abnormal movement on a scale from 0 (no awareness) to 4 (aware, severe distress). Items 11 and 12 are questions regarding the dental condition of the patient, with yes/no answers. The total score is calculated by summing AIMS items 1 through 10 and ranges from 0 to 40; the non-global total score is calculated by summing items 1 through 7.

[3] = tested on: adult subjects with schizophrenia; assay: PANSS responder rates, Clinical Study One; settings: for PANSS responder rate, 20% definition: Endpoint LOCF; for PANSS Responder at Endpoint (LOCF), 20% Definition / PANSS Responder at Endpoint (LOCF), 25% Definition / PANSS Responder at Endpoint (LOCF), 30% Definition / PANSS Responder at Endpoint (LOCF), 35% Definition: ITT
Procedure: as §1

[4] = tested on: adult subjects with schizophrenia; assay: PANSS total score, Clinical Study One (6-week, risperidone-referenced); settings: for Change from Baseline in PANSS Total Score, Mean (S.D.) / Change from Baseline in PANSS Total Score, Median / PANSS Total Score, Trt Effect (bifeprunox minus placebo mean change from Baseline): ITT; for PANSS Total Score, Trt Effect (bifeprunox minus placebo mean change from Baseline): ANCOVA
Procedure: as §1
Test Product. Dose and Mode of Administration: Bifeprunox tablets, total daily dose 0.125 mg to 20 mg administered orally using a once daily dosing regimen.
as §2

[5] = Bifeprunox 10 mg, Endpoint LOCF
[6] = Bifeprunox 20 mg, Endpoint LOCF

## O=c1[nH]c2cccc(N3CCN(Cc4cccc(-c5ccccc5)c4)CC3)c2o1 [Bifeprunox, 7-[4-([1,1′-biphenyl]-3-ylmethyl)-1-piperazinyl]-2(3H)-benzoxazolone]
[1]; Week 1
  Change from Baseline in PANSS Negative Subscale Score, Mean (S.D.): −1.6 (3.4)
  Change from Baseline in PANSS Negative Subscale Score, Median: −1
[1]; Week 2
  Change from Baseline in PANSS Negative Subscale Score, Mean (S.D.): −2.0 (4.2)
  Change from Baseline in PANSS Negative Subscale Score, Median: −1
[1]; Week 3
  Change from Baseline in PANSS Negative Subscale Score, Mean (S.D.): −2.7 (4.4)
[1]; Week 4
  Change from Baseline in PANSS Negative Subscale Score, Mean (S.D.): −2.5 (4.6)
  Change from Baseline in PANSS Negative Subscale Score, Median: −2
[2]; Bifeprunox 30 mg
  SAS shifts from normal at Baseline to abnormal at Endpoint: < 1%
[2]; Bifeprunox 40 mg
  SAS shifts from normal at Baseline to abnormal at Endpoint: 4%
  subjects with abnormal SAS scores at Endpoint: 7%
[3]; Bifeprunox 5 mg
  PANSS responder rate, 20% definition: 28%
  PANSS Responder at Endpoint (LOCF), 20% Definition: 31 (28) n (%)
  PANSS Responder at Endpoint (LOCF), 25% Definition: 25 (23) n (%)
  PANSS Responder at Endpoint (LOCF), 30% Definition: 16 (15) n (%)
  PANSS Responder at Endpoint (LOCF), 35% Definition: 11 (10) n (%)
[3]; Bifeprunox 10 mg
  PANSS responder rate, 20% definition: 24%
  PANSS Responder at Endpoint (LOCF), 20% Definition: 28 (24) n (%)
  PANSS Responder at Endpoint (LOCF), 25% Definition: 22 (19) n (%)
  PANSS Responder at Endpoint (LOCF), 30% Definition: 12 (10) n (%)
  PANSS Responder at Endpoint (LOCF), 35% Definition: 7 (6) n (%)
[3]; Bifeprunox 20 mg
  PANSS Responder at Endpoint (LOCF), 20% Definition: 38 (34) n (%)
  PANSS Responder at Endpoint (LOCF), 25% Definition: 27 (24) n (%)
  PANSS Responder at Endpoint (LOCF), 30% Definition: 18 (16) n (%)
  PANSS Responder at Endpoint (LOCF), 35% Definition: 14 (13) n (%)
[3]; bifeprunox 20 mg
  PANSS responder rate, 20% definition: 34%
[4]; Bifeprunox 5 mg, Endpoint LOCF
  Change from Baseline in PANSS Total Score, Mean (S.D.): −9.7 (17.5)
  Change from Baseline in PANSS Total Score, Median: −8
  PANSS Total Score, Trt Effect (bifeprunox minus placebo mean change from Baseline): −4.1
[4]; Bifeprunox 5 mg, Week 1, LOCF
  Change from Baseline in PANSS Total Score, Mean (S.D.): −3.9 (13.1)
  Change from Baseline in PANSS Total Score, Median: −4
[4]; Bifeprunox 5 mg, Week 2, LOCF
  Change from Baseline in PANSS Total Score, Mean (S.D.): −6.7 (14.9)
  Change from Baseline in PANSS Total Score, Median: −7
[4]; Bifeprunox 5 mg, Week 3, LOCF
  Change from Baseline in PANSS Total Score, Mean (S.D.): −7.7 (16.1)
  Change from Baseline in PANSS Total Score, Median: −7
[4]; Bifeprunox 5 mg, Week 4, LOCF
  Change from Baseline in PANSS Total Score, Mean (S.D.): −8.7 (17.1)
  Change from Baseline in PANSS Total Score, Median: −7
[4]; [5]
  Change from Baseline in PANSS Total Score, Mean (S.D.): −5.0 (18.3)
  Change from Baseline in PANSS Total Score, Median: −4
  PANSS Total Score, Trt Effect (bifeprunox minus placebo mean change from Baseline): 0.6
[4]; Bifeprunox 10 mg, Week 1, LOCF
  Change from Baseline in PANSS Total Score, Mean (S.D.): −2.9 (11.7)
  Change from Baseline in PANSS Total Score, Median: −1
[4]; Bifeprunox 10 mg, Week 2, LOCF
  Change from Baseline in PANSS Total Score, Mean (S.D.): −4.2 (14.6)
  Change from Baseline in PANSS Total Score, Median: −3
[4]; Bifeprunox 10 mg, Week 3, LOCF
  Change from Baseline in PANSS Total Score, Mean (S.D.): −4.6 (17.4)
  Change from Baseline in PANSS Total Score, Median: −3
[4]; Bifeprunox 10 mg, Week 4, LOCF
  Change from Baseline in PANSS Total Score, Mean (S.D.): −4.1 (17.2)
  Change from Baseline in PANSS Total Score, Median: −5
[4]; [6]
  Change from Baseline in PANSS Total Score, Mean (S.D.): −11.3 (17.0)
  Change from Baseline in PANSS Total Score, Median: −11
  PANSS Total Score, Trt Effect (bifeprunox minus placebo mean change from Baseline): −5.8
[4]; Bifeprunox 20 mg, Week 1, LOCF
  Change from Baseline in PANSS Total Score, Mean (S.D.): −6.3 (11.5)
  Change from Baseline in PANSS Total Score, Median: −5
[4]; Bifeprunox 20 mg, Week 2, LOCF
  Change from Baseline in PANSS Total Score, Mean (S.D.): −9.0 (14.0)
  Change from Baseline in PANSS Total Score, Median: −8
[4]; Bifeprunox 20 mg, Week 3, LOCF
  Change from Baseline in PANSS Total Score, Mean (S.D.): −11.2 (14.5)
  Change from Baseline in PANSS Total Score, Median: −11
[4]; Bifeprunox 20 mg, Week 4, LOCF
  Change from Baseline in PANSS Total Score, Mean (S.D.): −11.2 (15.9)
  Change from Baseline in PANSS Total Score, Median: −11
[4]; bifeprunox 5 mg, 6 weeks
  superiority to placebo, primary efficacy endpoint (PANSS total score): did not show superiority to placebo
[4]; bifeprunox 10 mg, 6 weeks
  improvement compared to placebo, any efficacy endpoint: did not show statistically greater improvement for any efficacy endpoint
[4]; bifeprunox 20 mg once daily, 6 weeks
  efficacy compared to placebo (PANSS total and subscale scores): effective in reducing both positive and negative symptoms of schizophrenia
[4]; bifeprunox 20 mg, 6 weeks
  greater improvement from Baseline in PANSS total score compared with placebo: 5.8 point
[4]; bifeprunox 20 mg, 6 weeks (Example 4)
  reduction in the PANSS total score compared to placebo: statistically significant (P<0.05) compared to placebo at Week 3 and Week 6/endpoint
